# Key:
# panel of 442 kinases [1] = biological target: T1, panel of 442 kinases (Homo sapiens, UniProt Q8IWQ3); format: binding; parameters: KINOMEscan: ABL1(F317L)-phosphorylated / KINOMEscan: ABL1(H396P)-nonphosphorylated / KINOMEscan: ABL1(H396P)-phosphorylated / KINOMEscan: ABL1(M351T)-phosphorylated / KINOMEscan: ABL1(T315I)-phosphorylated / KINOMEscan: ABL1-nonphosphorylated / KINOMEscan: ABL1-phosphorylated / KINOMEscan: ACVR2A / KINOMEscan: ACVR2B / KINOMEscan: ADCK3 / KINOMEscan: ADCK4 / KINOMEscan: AKT1 / KINOMEscan: AKT3 / KINOMEscan: ALK / KINOMEscan: ARK5 / KINOMEscan: AURKA / KINOMEscan: AURKC / KINOMEscan: BIKE / KINOMEscan: BMPR1A / KINOMEscan: BMPR1B / KINOMEscan: BMX / KINOMEscan: BRK / KINOMEscan: BRSK1 / KINOMEscan: BRSK2 / KINOMEscan: CAMK1 / KINOMEscan: CAMK1D / KINOMEscan: CAMK1G / KINOMEscan: CAMK2A / KINOMEscan: CAMK2B / KINOMEscan: AAK1 / KINOMEscan: CAMK2D / KINOMEscan: CAMK2G / KINOMEscan: ABL1(F317I)-nonphosphorylated / KINOMEscan: ABL1(F317I)-phosphorylated / KINOMEscan: ABL1(F317L)-nonphosphorylated: unit: % Ctrl; details: Compound Concentration 10 µM
# T1 construct: purchased KINOMEscan
# T1 sequence (Q8IWQ3 1-736): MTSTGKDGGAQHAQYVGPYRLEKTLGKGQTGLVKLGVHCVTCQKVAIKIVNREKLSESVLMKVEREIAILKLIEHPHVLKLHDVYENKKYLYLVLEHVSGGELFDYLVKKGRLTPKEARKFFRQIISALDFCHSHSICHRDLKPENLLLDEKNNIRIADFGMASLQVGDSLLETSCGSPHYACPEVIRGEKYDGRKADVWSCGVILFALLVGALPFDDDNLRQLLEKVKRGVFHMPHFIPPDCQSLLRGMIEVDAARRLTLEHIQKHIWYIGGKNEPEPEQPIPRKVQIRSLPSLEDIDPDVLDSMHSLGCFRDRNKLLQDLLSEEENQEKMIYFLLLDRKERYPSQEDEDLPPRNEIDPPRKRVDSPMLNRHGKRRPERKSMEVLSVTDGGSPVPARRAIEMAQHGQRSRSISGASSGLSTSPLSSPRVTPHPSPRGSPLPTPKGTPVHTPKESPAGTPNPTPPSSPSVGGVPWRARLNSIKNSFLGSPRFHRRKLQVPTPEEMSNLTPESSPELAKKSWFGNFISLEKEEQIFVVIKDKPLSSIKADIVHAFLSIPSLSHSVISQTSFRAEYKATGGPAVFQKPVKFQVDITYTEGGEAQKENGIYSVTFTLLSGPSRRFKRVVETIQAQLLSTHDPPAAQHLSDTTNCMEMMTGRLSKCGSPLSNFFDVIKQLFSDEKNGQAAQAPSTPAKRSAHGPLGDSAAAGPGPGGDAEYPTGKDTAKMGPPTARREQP
# Description: (§1) We assessed the selectivity of members of this scaffold using the KINOMEscan methodology across a near comprehensive panel of 442 kinases [[18,27]].
# panel of 442 kinases [2] = biological target: T2, panel of 442 kinases (Homo sapiens, UniProt Q9BXA7); format: binding; parameters: KINOMEscan: ABL1(F317L)-phosphorylated / KINOMEscan: ABL1(H396P)-nonphosphorylated / KINOMEscan: ABL1(H396P)-phosphorylated / KINOMEscan: ABL1(M351T)-phosphorylated / KINOMEscan: ABL1(T315I)-phosphorylated / KINOMEscan: ABL1-nonphosphorylated / KINOMEscan: ABL1-phosphorylated / KINOMEscan: ACVR2A / KINOMEscan: ACVR2B / KINOMEscan: ADCK3 / KINOMEscan: ADCK4 / KINOMEscan: AKT1 / KINOMEscan: AKT3 / KINOMEscan: ALK / KINOMEscan: ARK5 / KINOMEscan: AURKA / KINOMEscan: AURKC / KINOMEscan: BIKE / KINOMEscan: BMPR1A / KINOMEscan: BMPR1B / KINOMEscan: BMX / KINOMEscan: BRK / KINOMEscan: BRSK1 / KINOMEscan: BRSK2 / KINOMEscan: CAMK1 / KINOMEscan: CAMK1D / KINOMEscan: CAMK1G / KINOMEscan: CAMK2A / KINOMEscan: CAMK2B / KINOMEscan: AAK1 / KINOMEscan: CAMK2D / KINOMEscan: CAMK2G / KINOMEscan: ABL1(F317I)-nonphosphorylated / KINOMEscan: ABL1(F317I)-phosphorylated / KINOMEscan: ABL1(F317L)-nonphosphorylated: unit: % Ctrl; details: kinase TSSK1B; compound concentration 10 µM
# T2 construct: purchased KINOMEscan
# T2 sequence (Q9BXA7 1-367): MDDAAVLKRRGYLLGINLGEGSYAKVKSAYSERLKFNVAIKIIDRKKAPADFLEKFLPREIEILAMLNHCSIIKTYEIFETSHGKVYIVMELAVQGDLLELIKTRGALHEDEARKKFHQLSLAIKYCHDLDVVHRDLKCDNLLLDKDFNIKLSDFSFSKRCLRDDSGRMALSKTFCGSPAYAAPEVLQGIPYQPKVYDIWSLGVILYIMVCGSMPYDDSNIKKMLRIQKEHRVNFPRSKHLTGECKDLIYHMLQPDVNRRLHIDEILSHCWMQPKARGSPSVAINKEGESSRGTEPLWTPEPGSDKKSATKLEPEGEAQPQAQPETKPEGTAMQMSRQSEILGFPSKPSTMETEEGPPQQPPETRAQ
# Description: as §1
Compound,KINOMEscan: BRSK2 (panel of 442 kinases [1]),"% Ctrl, TSSK1B (panel of 442 kinases [2])"
COc1cc(C(=O)N2CCC(N3CCN(C)CC3)CC2)ccc1Nc1ncc2c(n1)N(C)c1ccccc1C(=O)N2C [15 (LRRK2-IN-1)],64,60 % Ctrl
COc1cc(C(=O)N2CCC(N3CCN(C)CC3)CC2)ccc1Nc1ncc2c(n1)N1CCc3cccc(c31)C(=O)N2C [Compound 24],81,61 % Ctrl
"COc1cc(C(=O)N2CCC(N3CCN(C)CC3)CC2)ccc1Nc1ncc2c(n1)N(C1CCCC1)c1ccccc1C(=O)N2C [Compound 25, 11-cyclopentyl-2-((2-methoxy-4-(4-(4-methylpiperazin-1-yl)piperidine-1-carbonyl)phenyl)amino)-5-methyl-5H-benzo[e]pyrimido[5,4-b][1,4]diazepin-6(11H)-one]",80,90 % Ctrl
CCOc1cc(C(=O)N2CCC(N3CCN(C)CC3)CC2)ccc1Nc1ncc2c(n1)N(C1CCCC1)c1ccccc1C(=O)N2C [Compound 26],92,100 % Ctrl

# From publication PMC3914206
